Measurements taken from ChEMBL document CHEMBL5523713, “Development of novel N-aryl-2,4-bithiazole-2-amine-based CYP1B1 degraders for reversing drug resistance” (Eur J Med Chem, 2024).
Peptide text beside a SMILES is read from it. * marks the point of attachment. Cbz = O=C(OCc1ccccc1)*

Experiments:
Type in all cases: ADME, cell-based
[1] = biological target: T1, von Hippel-Lindau disease tumor suppressor/Cytochrome P450 1B1 (Homo sapiens, UniProt Q16678+P40337); assay: PROTAC activity at VHL/CYP1B1 in human A549/Taxol cells assessed as degradation by measuring fold change in remaining CYP1B1 level at 1000 nM incubated for 24 hrs by Western blotting analysis (reference value: 1); conditions: 1 µM
[2] = biological target: T1, von Hippel-Lindau disease tumor suppressor/Cytochrome P450 1B1; assay: PROTAC activity at VHL/CYP1B1 in human A549/Taxol cells assessed as degradation by measuring fold change in remaining CYP1B1 level at 1 nM incubated for 24 hrs by Western blotting analysis (reference value: 1); conditions: 0.001 µM
[3] = biological target: T1, von Hippel-Lindau disease tumor suppressor/Cytochrome P450 1B1; assay: PROTAC activity at VHL/CYP1B1 in human A549/Taxol cells assessed as reduction in CYP1B1 level at 1 nM incubated for 24 hrs by Western blotting analysis; design: scale not given: the % may be the effect or the level left; conditions: 0.001 µM
[4] = biological target: T1, von Hippel-Lindau disease tumor suppressor/Cytochrome P450 1B1; assay: PROTAC activity at VHL/CYP1B1 in human A549/Taxol cells assessed as reduction in CYP1B1 level at 1000 nM incubated for 24 hrs by Western blotting analysis; design: scale not given: the % may be the effect or the level left; conditions: 1 µM
[5] = biological target: T2, Protein cereblon/Cytochrome P450 1B1 (Homo sapiens, UniProt Q16678+Q96SW2); assay: PROTAC activity at CRBN/CYP1B1 in human A549/Taxol cells assessed as degradation by measuring fold change in remaining CYP1B1 level at 1 nM incubated for 24 hrs by Western blotting analysis (reference value: 1); conditions: 0.001 µM
[6] = biological target: T2, Protein cereblon/Cytochrome P450 1B1; assay: PROTAC activity at CRBN/CYP1B1 in human A549/Taxol cells assessed as degradation by measuring fold change in remaining CYP1B1 level at 1000 nM incubated for 24 hrs by Western blotting analysis (reference value: 1); conditions: 1 µM
[7] = biological target: T1, von Hippel-Lindau disease tumor suppressor/Cytochrome P450 1B1; assay: PROTAC activity at VHL/CYP1B1 in human A549/Taxol cells assessed as reduction in CYP1B1 level at 1 uM incubated for 24 hrs by Western blotting analysis

T2 sequence (Q16678 whole entry): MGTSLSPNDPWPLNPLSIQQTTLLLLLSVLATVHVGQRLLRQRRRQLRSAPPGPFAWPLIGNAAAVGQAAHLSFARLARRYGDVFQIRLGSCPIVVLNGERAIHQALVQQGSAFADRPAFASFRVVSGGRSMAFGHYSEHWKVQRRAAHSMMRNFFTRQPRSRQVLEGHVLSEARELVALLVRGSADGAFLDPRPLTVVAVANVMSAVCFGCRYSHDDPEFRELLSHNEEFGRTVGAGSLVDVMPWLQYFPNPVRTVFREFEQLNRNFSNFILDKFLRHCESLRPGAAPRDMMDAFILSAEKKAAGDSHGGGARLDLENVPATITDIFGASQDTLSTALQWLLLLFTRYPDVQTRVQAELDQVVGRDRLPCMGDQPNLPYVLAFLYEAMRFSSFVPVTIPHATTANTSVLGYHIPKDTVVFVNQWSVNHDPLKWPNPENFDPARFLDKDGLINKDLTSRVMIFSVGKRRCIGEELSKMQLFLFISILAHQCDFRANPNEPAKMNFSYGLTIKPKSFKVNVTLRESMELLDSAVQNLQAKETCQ
T2 sequence (Q96SW2 whole entry): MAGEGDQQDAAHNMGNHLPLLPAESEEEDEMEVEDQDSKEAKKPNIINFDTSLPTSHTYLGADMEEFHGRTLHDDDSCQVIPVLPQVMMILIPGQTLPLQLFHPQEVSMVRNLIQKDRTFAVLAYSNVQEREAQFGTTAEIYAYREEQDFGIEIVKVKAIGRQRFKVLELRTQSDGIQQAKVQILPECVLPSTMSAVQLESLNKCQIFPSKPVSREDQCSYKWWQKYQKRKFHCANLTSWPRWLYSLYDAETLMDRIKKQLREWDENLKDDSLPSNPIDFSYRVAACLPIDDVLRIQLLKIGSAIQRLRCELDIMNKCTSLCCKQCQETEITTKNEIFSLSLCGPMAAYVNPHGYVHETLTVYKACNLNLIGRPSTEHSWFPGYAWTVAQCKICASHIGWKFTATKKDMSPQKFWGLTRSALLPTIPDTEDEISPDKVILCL
T1 sequence (Q16678 whole entry): as the sequence (Q16678 whole entry) above
T1 sequence (P40337 whole entry): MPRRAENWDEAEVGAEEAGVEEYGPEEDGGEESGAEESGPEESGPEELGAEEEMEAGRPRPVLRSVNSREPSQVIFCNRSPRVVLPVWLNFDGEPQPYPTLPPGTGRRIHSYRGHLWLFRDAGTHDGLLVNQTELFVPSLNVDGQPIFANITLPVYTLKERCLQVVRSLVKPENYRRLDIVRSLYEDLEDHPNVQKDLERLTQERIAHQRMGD

Row | Structure (SMILES) | fold change (FC) [1] | fold change (FC) [2] | fold change (FC) [5] | fold change (FC) [6] | other results
1 | Cc1ncsc1-c1ccc([C@H](C)NC(=O)[C@@H]2C[C@@H](O)CN2C(=O)[C@@H](NC(=O)CCCCCCCCOc2ccccc2-c2csc(-c3csc(Nc4ccc(Cl)cc4)n3)n2)C(C)(C)C)cc1 | 0.6 | 0.7 |  |  | 
2 | Cc1ncsc1-c1ccc([C@H](C)NC(=O)[C@@H]2C[C@@H](O)CN2C(=O)[C@@H](NC(=O)CCCCCCCOc2ccccc2-c2csc(-c3csc(Nc4ccc(Cl)cc4)n3)n2)C(C)(C)C)cc1 | 0.2 | 0.4 |  |  | Activity [3]: 60%; Activity [4]: > 70%
3 | Cc1ncsc1-c1ccc([C@H](C)NC(=O)[C@@H]2C[C@@H](O)CN2C(=O)[C@@H](NC(=O)CCCCCOc2ccccc2-c2csc(-c3csc(Nc4ccc(Cl)cc4)n3)n2)C(C)(C)C)cc1 | 1.5 | 0.5 |  |  | 
4 | O=C1CCC(N2C(=O)c3cccc(NC(=O)CN4CCN(CCCCCCCCCCCC(=O)Nc5ccc(-c6csc(-c7csc(Nc8ccc(Cl)cc8)n7)n6)cc5)CC4)c3C2=O)C(=O)N1 (stereo not drawn) |  |  | 1.5 | 1.1 | 
5 | O=C1CCC(N2C(=O)c3cccc(NC(=O)CN4CCN(CCCCCCCCCC(=O)Nc5ccc(-c6csc(-c7csc(Nc8ccc(Cl)cc8)n7)n6)cc5)CC4)c3C2=O)C(=O)N1 (stereo not drawn) |  |  | 0.8 | 1.2 | 
6 | O=C1CCC(N2Cc3c(NC(=O)CCCCCCCC(=O)Nc4ccc(-c5csc(-c6csc(Nc7ccc(Cl)cc7)n6)n5)cc4)cccc3C2=O)C(=O)N1 (stereo not drawn) |  |  | 0.8 | 1 | 
7 | Cc1ncsc1-c1ccc([C@H](C)NC(=O)[C@@H]2C[C@@H](O)CN2C(=O)[C@@H](NC(=O)Cn2cc(CCCCCOc3ccccc3-c3csc(-c4csc(Nc5ccc(Cl)cc5)n4)n3)nn2)C(C)(C)C)cc1 | 0.9 | 1.1 |  |  | 
8 | Cc1ncsc1-c1ccc([C@H](C)NC(=O)[C@@H]2C[C@@H](O)CN2C(=O)[C@@H](NC(=O)CCCCCCCCCCCOc2ccccc2-c2csc(-c3csc(Nc4ccc(Cl)cc4)n3)n2)C(C)(C)C)cc1 | 2 | 0.9 |  |  | 
9 | O=C1CCC(N2C(=O)c3cccc(NC(=O)CN4CCN(CCCCCCCCCCC(=O)Nc5ccc(-c6csc(-c7csc(Nc8ccc(Cl)cc8)n7)n6)cc5)CC4)c3C2=O)C(=O)N1 (stereo not drawn) |  |  | 1.2 | 1.5 | 
10 | CC(C)C[C@@H](C=O)NC(=O)[C@H](CC(C)C)NC(=O)[C@H](CC(C)C)NC(=O)OCc1ccccc1 [MG-132] (Cbz-Leu-Leu-Leu-aldehyde) |  |  |  |  | Activity [7]: Not Active
11 | O=C1CCC(N2Cc3c(NC(=O)CCCCCC(=O)Nc4ccc(-c5csc(-c6csc(Nc7ccc(Cl)cc7)n6)n5)cc4)cccc3C2=O)C(=O)N1 (stereo not drawn) |  |  | 1.1 | 1 | 
